Data as given in patent US20040121357A1, “Artificial endonuclease” (priority 2004, published 2004).
“Also recorded” adds a separate entry of the source. Where no end group is shown, it is not given here.

How the values were obtained:
[1] = tested on: ^32P-labeled fragment of pBR322; test: Cleavage of 32P-labeled DNA fragment, acrylamide gel electrophoresis; format: biochemical; settings: 40 μM Ce^4+, 37° C. overnight
Description: FIG. 10. Sequence specificity of artificial endonucleases. […] Controls (water) were conducted to measure background cleavage. […] Minor products run with Maxam-Gilbert lanes.
Sequence Selective DNA Cleavage. […] This cleavage is not dependent on the strain inherent in supercoiled plasmid, as cleavage of linearized ^32P-labeled DNA oligonucleotides was observed as well. Labeled fragments were incubated with Ce(NH3)6(NO3)4 and varying concentrations of peptides P3 or P3W at 37° C. overnight and analyzed by acrylamide gel electrophoresis (FIG. 10). Cleavage was concentration dependent, and distinct between metallopeptides.

[2] = Hydrolysis of bis-nitrophenylphosphate (BNPP) followed spectrophotometrically at 400 nm; format: biochemical; settings: for Rates (K(obs)) of BNPP cleavage: 500 μM BNPP, 37° C.
Description: To test hydrolytic activity, the hydrolysis of binitrophenylphosphate (BNPP) is followed. The absorbance increase at 400 nm is due to liberated 4-nitrophenolate which can be monitored over time to give rate constants. The rate reflects the relative accessibility and reactivity of the active site, and can be compared to the rates observed for the hydrolytically active peptide or polypeptide.
Hydrolytic Phosphate Cleavage. Because the EF-Hand is physiologically strictly a structural motif, an isolated Ca-binding loop's ability to affect hydrolytic cleavage was addressed. The hydrolysis of bis-nitrophenylphosphate (BNPP) was followed spectrophotometrically under turnover conditions. The absorbance increase at 400 nm due to liberated 4-nitrophenolate was observed over the initial 10-14 hours of the reaction (<10% BNPP converted). […] Plots of absorbance vs. time were converted to concentration units (ε=18,500 M^−1 cm^−1) to give first order rate constants (Sardesai et al., 1994).

[3] = tested on: supercoiled plasmid DNA (pBR322); test: DNA gel shift assay (agarose gel electrophoresis); format: binding; settings: for Gel shift / affinity for supercoiled plasmid DNA (in words): 5-25 μM ligand, 15 minutes, room temperature
Description: DNA Gel Shift Assays. The affinity of EuP3, EuP2, and each free peptide for supercoiled plasmid DNA was examined by agarose gel electrophoresis. Plasmid (pBR322, New England Biolabs, Inc.) was incubated for 15 minutes at room temperature with increasing concentrations of each ligand (5-25 μM), prior to the addition of loading dye. Each lane contained 1 μg plasmid (50 μM base pairs) in 10 mM Tris buffer at pH 8.0. […] The interaction of ligand with supercoiled plasmid (type I) can be observed if run under conditions where the DNA-ligand interactions are not disturbed during electrophoresis. Supercoiled pBR322 was chosen as a standard plasmid, and was incubated for 15 minutes with EuCl3, EuP3, EuP2, or free peptide prior to electrophoresis. This small, 4,361 bp plasmid contains three [NT] sequences, and eight […] sequences, partial target sequences for engrailed homeodomain. In the absence of 0.1 M EDTA (normally added prior to electrophoresis to quench hydrolytic cleavage assays) and with short incubation times to minimize metal-catalyzed cleavage, a gel shift can be observed. […] From quantified concentration-dependent gel shift data, an estimate of the binding affinity of EuP3 can be made. Gels with increasing Eu-peptide concentrations (5 to 25 μM in each set) were quantified (ImageQuant; Molecular Simulations), and average band volumes were plotted versus concentration. […] Each graphed point represents data averaged from three gel experiments.

[4] = Circular dichroism titration of peptides with Eu(III) (incl. TFE helix induction); settings: initial portion of the curve (0-50 μM Eu(III)); read-out: Metal binding affinity (K1, Kd) estimated from CD titration
supercoiled plasmid DNA = test: Cleavage of supercoiled plasmid DNA, agarose gel electrophoresis; format: biochemical; settings: for Dependence of cleavage activity on concentration (in words): increasing metallopeptide concentration
Description: FIG. 8. […] Samples containing 1 μg plasmid (about 60 μM b.p.) in 10 mM Tris buffer, pH=7.0, were incubated for 48 hours at 37° C. Reactions were quenched by the addition of 0.5 M EDTA to a final concentration of 10 mM, followed by addition of 100 mM KCl. The reaction mixtures were then treated with Amberlyst cation exchange resin prior to electrophoresis. Lane 1: pUC19 DNA control; lanes 2-5: DNA plus increasing concentrations of EuC13 (20, 30, 50 and 100 μM); lanes 6-9: DNA plus increasing concentrations of free P3 (20, 30, 50 and 100 μM); lanes 10-15: DNA plus increasing concentrations of 1:1 Eu:P3 (10, 20, 30, 40, 50 and 100 μM).
The conversion of supercoiled plasmid (type I) to open circular (type II), linear (type III), or smaller fragments was monitored by agarose gel electrophoresis. Because the synthetic peptides bind strongly to DNA, thus preventing the observation of products, the peptides were chelated prior to electrophoresis (Falke et al., 1994). At the point each reaction was quenched (0.1 M EDTA), a suspension of neutral, washed, cation resin (Amberlyst, 10-20 μL) was incubated with each sample for 30 minutes, spun down, and the supernatent loaded into wells. After 24 hours of reaction (incubated at 37° C.), the concentration-dependent formation of open circular plasmid was observed (FIG. 8). […] Over a 10-300 μM EuP3 gradient, nicking occurred from 10-150 μM, with the greatest amount of cleavage at 30 μM EuP3.

[5] = biological target: the molecule itself; test: dimerization constant (self-association) from CD titration of P3 with Eu(III), helicity at 222 nm
Description: Circular Dichroism Titrations. The titration of P2 and P3 peptides with Eu(III) and Ca(II) was followed by circular dichroism spectroscopy on an Aviv 60DS spectrophotometer at 25° C. Samples (50 μM peptide) were scanned from 260 to 200 nm (0.1 mm pathlength cell, 1.0 nm bandwidth, 0.5 nm resolution), in 10 mM Tris(hydroxymethyl)aminomethane buffer (Tris; pH=7.8). Eu(III) and Ca(II) were added as the chlorides. Aliquots of 10 mM stock metal solutions were added to a maximum of 10 equivalents.
The secondary structure of P3 as a function of metal was followed by CD, calculating the % α-helicity from the molar ellipticity at 222 nm (100% helical=−31,500 deg cm² dmol⁻¹). With the addition of Eu(III) to P3, the helicity increases from 9 to 25%, showing enhanced structure correlated to metal-coordination. This increase in structure with added metal describes a curve which has an inflection point at approximately 1:1 Eu:P3, then continues to a 25% helical metal-saturated form. […] A second structural change, correlating to the discrete back-to-back dimerization which has been well characterized for similar EF-Hand peptides systems occurs at Kdim about 80 μM (Shaw et al., 1991; Wójcik et al., 1997; Clarke et al., 1993; Shaw et al., 1990; Maurer et al., 1995). […]

[6] = biological target: the molecule itself; test: dimerization constant of Eu(III)-bound P3 (self-association); isothermal titration microcalorimetry
[7] = biological target: the molecule itself; test: dimerization constant of Eu(III)-bound P4a (self-association); called 'measured', method not stated
[8] = 10 μM Eu/10 μM peptide, pH 7.7, 10 mM Tris
[9] = 25 μM Eu/25 μM peptide, pH 7.7, 10 mM Tris
[10] = 25 μM Eu/50 μM peptide, pH 7.7, 10 mM Tris
[11] = 10-300 μM EuP3 gradient, 37° C.

Molecule: O=[N+]([O-])[O-].O=[N+]([O-])[O-].O=[N+]([O-])[O-].O=[N+]([O-])[O-].O=[N+]([O-])[O-].O=[N+]([O-])[O-].[Ce+4].[NH4+].[NH4+] [Ce^4+, (NH4)2 Ce(NO3)6]
- Regioselectivity of cleavage: termini produced [1]: both 3′ and 5′ termini

Molecule: [Cl][Eu]([Cl])[Cl] [EuCl3, reference compound]
- Rates (K(obs)) of BNPP cleavage ([2]; 10 μM Eu/0 μM peptide, pH 7.7, 5 mM Tris): 5.2 ± 0.6 s^−1 × 10^7
- Rates (K(obs)) of BNPP cleavage ([2]; 10 μM Eu/0 μM peptide, pH 7.7, 10 mM Tris): 1.4 s^−1 × 10^7
- Rates (K(obs)) of BNPP cleavage ([2]; 12 μM Eu/0 μM peptide, pH 7.7, 5 mM Tris): 5.7 ± 0.3 s^−1 × 10^7
- Rates (K(obs)) of BNPP cleavage ([2]; 15 μM Eu/0 μM peptide, pH 7.7, 10 mM Tris): 2.0 s^−1 × 10^7
- Rates (K(obs)) of BNPP cleavage ([2]; 20 μM Eu/0 μM peptide, pH 7.7, 5 mM Tris): 19 ± 3 s^−1 × 10^7
- Rates (K(obs)) of BNPP cleavage ([2]; 20 μM Eu/0 μM peptide, pH 7.7, 10 mM Tris): 2.7 s^−1 × 10^7
- Gel shift / affinity for supercoiled plasmid DNA (in words) [3]: not

Molecule: EuP3: Eu(III)-bound peptide P3 (1:1 Eu-peptide) (TERRRQQLDKDGDGTIDEREIKIHFQNKRAKIK)
- Kd [4]: ≤ 20 µM
- BNPP catalysis compared with free Eu(III) (in words) [2]: may not be as fast as free Eu(III) catalysis
- Rates (K(obs)) of BNPP cleavage [2, 8]: 6.0 s^−1 × 10^7
- Rates (K(obs)) of BNPP cleavage [2, 9]: 7.3 s^−1 × 10^7
- Rates (K(obs)) of BNPP cleavage [2, 10]: 20.6 s^−1 × 10^7
- Rates (K(obs)) of BNPP cleavage ([2]; 50 μM Eu/50 μM peptide, pH 7.7, 5 mM Tris): 17.5 ± 4 s^−1 × 10^7
- Rates (K(obs)) of BNPP cleavage ([2]; 50 μM Eu/100 μM peptide, pH 7.7, 5 mM Tris): 11.5 ± 4 s^−1 × 10^7
- Concentration causing a gel shift of supercoiled plasmid DNA ([3]; 50 μM base pairs): ≥ 10 µM
- Gel shift / affinity for supercoiled plasmid DNA (in words) [3]: significant affinity for supercoiled plasmid DNA; also recorded: gel shift and disappearance of type I plasmid occurs; also recorded: DNA-binding affinity in the micromolar regime; also recorded: disappearance of type I band
- Estimate of DNA binding affinity from quantified gel shift data ([3]; disappearance of type I band, 5 to 25 μM, average of three gels): ~20 µM
- Concentration range in which nicking occurred (supercoiled plasmid DNA; [11]): 10 to 150 µM
- Concentration with the greatest amount of cleavage (supercoiled plasmid DNA; [11]): 30 µM
- Cleavage of supercoiled plasmid DNA (in words) (supercoiled plasmid DNA; 37° C., pUC19 for EuP3, Eu(III) and Ce(IV) complexes for P3W): catalyzes the cleavage of supercoiled, double-stranded DNA; also recorded: cleavage of pUC19 plasmid DNA
- Dependence of cleavage activity on concentration (in words) (supercoiled plasmid DNA): falls off with increasing concentration

Molecule: EuP4a: Eu(III)-bound peptide P4a (TERRRFDKDGNGYISAAELRHVKIWFQNKRAKIK)
- Rates (K(obs)) of BNPP cleavage [2, 8]: 11.3 s^−1 × 10^7
- Rates (K(obs)) of BNPP cleavage [2, 9]: 56.3 s^−1 × 10^7
- Rates (K(obs)) of BNPP cleavage [2, 10]: 62.0 s^−1 × 10^7
- Rates (K(obs)) of BNPP cleavage ([2]; 50 μM Eu/50 μM peptide, pH 7.7, 10 mM Tris): 149.5 s^−1 × 10^7
- Rates (K(obs)) of BNPP cleavage ([2]; 50 μM Eu/100 μM peptide, pH 7.7, 10 mM Tris): 212.0 s^−1 × 10^7
- Dependence of cleavage activity on concentration (in words) (supercoiled plasmid DNA): does not

B1: P3 (peptide)
peptide: TERRRQQLDKDGDGTIDEREIKIHFQNKRAKIK
modifications: also: Eu(III) complex, Eu(III) organizes two peptides into back-to-back dimer
notes: In the dimerization experiments it stood with Eu(III) (EuCl3); The entry describes the monomer; also called EuP3; peptide P3
- Kd [5]: ~80 µM
- Kd [6]: ≥ 80 µM

B2: P4a (peptide)
peptide: TERRRFDKDGNGYISAAELRHVKIWFQNKRAKIK
modifications: also: Eu(III) complex, dimer EuP4a2
notes: The entry describes the monomer; also called EuP4a; EuP4a2 (dimer)
- Kd [7]: ≥ 300 µM
